Data taken from patent US11851710B2, “Methods and materials for identifying metastatic malignant skin lesions and treating skin cancer” (Mayo Foundation for Medical Education and Research, priority 2014, dated 2023).

Columns and labels:
Assay type in all cases: cell-based
[1] = system: ERK; experiment: ERK activity (phospho-ERK) by Western blotting after overnight drug incubation; conditions: WM858 melanoma cells, 5 μM
Protocol: FIGS. 13A-13P illustrate B-raf^V600E inhibits FAK to promote integrin surface expression. FIG. 13A: shRNAs 841, 102 and NC were induced in WM858 cells by IPTG for 5 days (n=4) followed by RNA quantitation. Genes regulated at 0 vs. 0.05 mM IPTG in 841 and 102 but not NC cells are shown. These were: ITGB3 (orange), FAK (blue). Light orange, light blue: up- or down-regulation, respectively, by either 841 or 102 shRNA. FIG. 13B: WM858 cells were transfected with FAK or EGFP cDNA. Regulated genes, FAK over EGFP cells, are shown in orange (up) or blue (down) (n=4). FIG. 13C: Flow cytometry of NC, 841 and 102 cells (un-induced vs. 0.05 mM IPTG for 5 days). FIG. 13D: Integrin cell surface mean intensities; mean.+−.s.d.; n=3; *, p<0.05; p values, Student's t-test; ns, not significant. FIG. 13E: Visualization of focal adhesions by paxillin staining on micropatterned fibronectin disks. […] FIGS. 13M-13O: FAK/ERK levels in NHM and WM858 after overnight drug incubation (FIG. 13M); quantification of FAK (FIG. 13N) and ERK phosphorylation (FIG. 13O); mean.+−.s.d.; n=4; *, p<0.05; p values, Student's t-test. […]
(§1) PYK2, a FAK-like tyrosine kinase, could not be detected in WM858 cells, irrespective of endogenous FAK levels. WM858 cells carrying control (NC) or FAK-specific shRNAs (841 and 102) were then exposed to IPTG for 5 days, and changes in adhesion gene expression were subsequently quantified by PCR. […]

[2] = system: β3 integrin; experiment: Cell surface β3 integrin expression by flow cytometry after overnight drug incubation; conditions: B-rafV600E melanoma cells, 5 μM
Protocol: (§2) FIGS. 13A-13P illustrate B-raf^V600E inhibits FAK to promote integrin surface expression. FIG. 13A: shRNAs 841, 102 and NC were induced in WM858 cells by IPTG for 5 days (n=4) followed by RNA quantitation. Genes regulated at 0 vs. 0.05 mM IPTG in 841 and 102 but not NC cells are shown. These were: ITGB3 (orange), FAK (blue). Light orange, light blue: up- or down-regulation, respectively, by either 841 or 102 shRNA. FIG. 13B: WM858 cells were transfected with FAK or EGFP cDNA. Regulated genes, FAK over EGFP cells, are shown in orange (up) or blue (down) (n=4). FIG. 13C: Flow cytometry of NC, 841 and 102 cells (un-induced vs. 0.05 mM IPTG for 5 days). FIG. 13D: Integrin cell surface mean intensities; mean.+−.s.d.; n=3; *, p<0.05; p values, Student's t-test; ns, not significant. FIG. 13E: Visualization of focal adhesions by paxillin staining on micropatterned fibronectin disks. FIGS. 13F and 13G: Proliferation speed in the absence (FIG. 13F) or presence (FIG. 13G) of FAK shRNAs; mean.+−.s.d.; n=8; *, p<0.05; p values, Student's t-test; ns, not significant. FIGS. 13H and 13I: Scratch wound healing in IPTG-induced cells; representative experiment (n=3). FIGS. 13J and 13K: Effect of IPTG-induced FAK knock-down on total (t) and phospho (p)-ERK; mean.+−.s.d.; n=4; *, p<0.05; p values, Student's t-test. FIG. 13L: Cell surface β1 and β3 integrin expression (flow cytometry) in B-raf^V600E and wild-type cells after overnight drug incubation; % expression relative to DMSO is shown. FIGS. 13M-13O: FAK/ERK levels in NHM and WM858 after overnight drug incubation (FIG. 13M); quantification of FAK (FIG. 13N) and ERK phosphorylation (FIG. 13O); mean.+−.s.d.; n=4; *, p<0.05; p values, Student's t-test. FIG. 13P: ERK activity in NC, 841 and 102 cells (0.05 mM IPTG for 5 days) after overnight drug incubation.
Isopropyl β-D-1-thiogalactopyranoside (IPTG), 4′,6-Diamidino-2-phenylindole dihydrochloridemitomycin (DAPI), blebbistatin and PF-573228 were purchased from Sigma-Aldrich. Dabrafenib (GSK2118436) was purchased from Selleckchem. FAK antibody (06-543) was from EMD MILLIPORE®. FAK pY397 (44624G) antibody was from Life Technologies. Total ERK (9102) and phospho-ERK (4370) antibodies were from Cell Signaling. Paxillin (610051), ITGB3 (555754), ITGB1 (555443) and mouse IgG1 kappa (555749) antibodies were from BD Transduction Labs. Drugs were used at 5 μM final concentration. EGFP control cDNA was from (Lonza). […]
as §1

[3] = system: β1 integrin; experiment: Cell surface β1 integrin expression by flow cytometry after overnight drug incubation; conditions: 5 μM
Protocol: as §2
Isopropyl β-D-1-thiogalactopyranoside (IPTG), 4′,6-Diamidino-2-phenylindole dihydrochloridemitomycin (DAPI), blebbistatin and PF-573228 were purchased from Sigma-Aldrich. Dabrafenib (GSK2118436) was purchased from Selleckchem. FAK antibody (06-543) was from EMD MILLIPORE®. FAK pY397 (44624G) antibody was from Life Technologies. Total ERK (9102) and phospho-ERK (4370) antibodies were from Cell Signaling. Paxillin (610051), ITGB3 (555754), ITGB1 (555443) and mouse IgG1 kappa (555749) antibodies were from BD Transduction Labs. Drugs were used at 5 μM final concentration. EGFP control cDNA was from (Lonza). FAK cDNA was obtained from A. Huttenlocher, Addgene plasmid number 35039 (Chan et al., J. Biol. Chem., 285:11418-26 (2010)).
PYK2, a FAK-like tyrosine kinase, could not be detected in WM858 cells, irrespective of endogenous FAK levels. WM858 cells carrying control (NC) or FAK-specific shRNAs (841 and 102) were then exposed to IPTG for 5 days, and changes in adhesion gene expression were subsequently quantified by PCR. […] Moreover, Dabrafenib-induced blockage of ERK activity could be partially reversed by a complete FAK knock-down in 102 cells (FIG. 13P).

| Structure (SMILES) | ERK activity [1] | β3 integrin surface levels [2] | β1 integrin surface levels ([3]; B-raf wild-type melanoma cells) | β1 integrin surface levels ([3]; B-rafV600E melanoma cells) |
| --- | --- | --- | --- | --- |
| CS(=O)(=O)c1cccc(CNc2nc(Nc3ccc4c(c3)CCC(=O)N4)ncc2C(F)(F)F)c1 [PF-573228] | induce | induced | not | induced |
| Cc1ccc2c(c1)C(=O)C1(O)CCN(c3ccccc3)C1=N2 (stereo not shown) [blebbistatin] |  | induced | not | induced |
